{"source": "paper PMC7794376", "about": "(Nature Communications, 2021)", "assay_type_in_all_cases": "biochemical", "key": {"[1]": {"target": "T1, MtbCoaBC (Mycobacterium tuberculosis, UniProt P9WNZ1)", "T1 sequence (P9WNZ1 whole entry)": "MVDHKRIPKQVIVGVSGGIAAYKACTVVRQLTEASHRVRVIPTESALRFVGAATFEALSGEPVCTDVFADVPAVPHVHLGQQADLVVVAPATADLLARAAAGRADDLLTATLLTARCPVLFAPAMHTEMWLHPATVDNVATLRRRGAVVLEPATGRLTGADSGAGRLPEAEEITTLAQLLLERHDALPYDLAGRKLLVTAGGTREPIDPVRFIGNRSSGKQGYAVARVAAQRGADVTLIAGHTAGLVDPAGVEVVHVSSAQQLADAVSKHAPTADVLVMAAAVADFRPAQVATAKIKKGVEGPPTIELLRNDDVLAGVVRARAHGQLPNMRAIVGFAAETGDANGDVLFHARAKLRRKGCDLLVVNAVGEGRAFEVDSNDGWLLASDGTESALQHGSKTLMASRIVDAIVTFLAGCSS", "experiment": "Competition assays, first half of CoaB reaction (EnzChek, variable CTP or PPA)", "settings": "for mode of inhibition: in words"}, "[2]": {"target": "human CoaB (HCoaB) (Homo sapiens, UniProt Q9HAB8)", "sequence (Q9HAB8 whole entry)": "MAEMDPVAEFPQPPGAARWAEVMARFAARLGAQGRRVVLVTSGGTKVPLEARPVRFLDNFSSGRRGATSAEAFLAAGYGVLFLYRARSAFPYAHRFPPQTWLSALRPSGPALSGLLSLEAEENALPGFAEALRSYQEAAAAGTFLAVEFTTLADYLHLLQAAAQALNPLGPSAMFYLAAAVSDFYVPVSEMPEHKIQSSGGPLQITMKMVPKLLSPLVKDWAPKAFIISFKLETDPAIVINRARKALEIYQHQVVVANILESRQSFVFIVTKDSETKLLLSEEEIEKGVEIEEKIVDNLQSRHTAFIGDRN", "experiment": "EnzChek pyrophosphate assay, HCoaB"}, "[3]": {"target": "T1, MtbCoaBC", "experiment": "biochemical", "settings": "for Activity R1 / Activity R3: slope of absorbance at 360 nm vs time (s)"}}, "note": "“And” between values parts separate entries of the source, which are not always exact repeats. Identical values can stand only once. Like-named read-outs stand apart in the source and are kept apart here."}
{"smiles": "O=c1cc(-c2ccc(O)c(O)c2)oc2cc(O)c(O)cc12", "note": "[compound 2b]", "values": [{"measurement": "mode of inhibition", "setting": "[1]; relative to CTP", "result": "mixed inhibition"}, {"measurement": "mode of inhibition", "setting": "[1]; relative to PPA", "result": "uncompetitive inhibition"}, {"measurement": "Inibition type", "setting": "[1]; variable substrate CTP", "result": "Mixed"}, {"measurement": "Ki", "setting": "[1]; variable substrate CTP", "result": "93 ± 18", "unit": "nM"}, {"measurement": "IC50", "setting": "[2]; 1 µM enzyme, average of three independent experiments ± SD", "result": "60 ± 7", "unit": "µM"}, {"measurement": "activity at 3.125 µM", "setting": "[2]; 3.125 uM compound, HCoaB, relative to average DMSO CT, replicates R1-R3", "result": 96.1, "unit": "%"}, {"measurement": "Activity %", "setting": "[2]; 3.125 uM compound, HCoaB, relative to average DMSO CT, replicates R1-R3, 3.125 µM", "result": "99.35% and 93.21%"}, {"measurement": "Inhibition %", "setting": "[2]; 3.125 uM compound, HCoaB, replicates R1-R3, 3.125 µM", "result": "0.65% and 6.79% and 3.88%"}, {"measurement": "activity at 6.25 µM", "setting": "[2]; 6.25 uM compound, HCoaB, relative to average DMSO CT, replicates R1-R3", "result": 97.4, "unit": "%"}, {"measurement": "Activity %", "setting": "[2]; 6.25 uM compound, HCoaB, relative to average DMSO CT, replicates R1-R3, 6.25 µM", "result": "94.68% and 99.68%"}, {"measurement": "Inhibition %", "setting": "[2]; 6.25 uM compound, HCoaB, replicates R1-R3, 6.25 µM", "result": "5.32% and 0.32% and 2.58%"}, {"measurement": "activity at 25 µM", "setting": "[2]; 25 uM compound, HCoaB, relative to average DMSO CT, replicates R1-R3", "result": 66.3, "unit": "%"}, {"measurement": "Activity %", "setting": "[2]; 25 uM compound, HCoaB, relative to average DMSO CT, replicates R1-R3, 25 µM", "result": "70.2% and 69.67%"}, {"measurement": "inhibition at 25 µM", "setting": "[2]; 25 uM compound, HCoaB, replicates R1-R3", "result": 29.8, "unit": "%"}, {"measurement": "Inhibition %", "setting": "[2]; 25 uM compound, HCoaB, replicates R1-R3, 25 µM", "result": "30.33% and 33.67%"}, {"measurement": "activity at 50 µM", "setting": "[2]; 50 uM compound, HCoaB, relative to average DMSO CT, replicates R1-R3", "result": 59, "unit": "%"}, {"measurement": "Activity %", "setting": "[2]; 50 uM compound, HCoaB, relative to average DMSO CT, replicates R1-R3, 50 µM", "result": "54.55% and 56.86%"}, {"measurement": "inhibition at 50 µM", "setting": "[2]; 50 uM compound, HCoaB, replicates R1-R3", "result": 45.5, "unit": "%"}, {"measurement": "Inhibition %", "setting": "[2]; 50 uM compound, HCoaB, replicates R1-R3, 50 µM", "result": "43.14% and 41.04%"}, {"measurement": "activity at 100 µM", "setting": "[2]; 100 uM compound, HCoaB, relative to average DMSO CT, replicates R1-R3", "result": 38, "unit": "%"}, {"measurement": "Activity %", "setting": "[2]; 100 uM compound, HCoaB, relative to average DMSO CT, replicates R1-R3, 100 µM", "result": "40.03% and 34.07%"}, {"measurement": "inhibition at 100 µM", "setting": "[2]; 100 uM compound, HCoaB, replicates R1-R3", "result": 60, "unit": "%"}, {"measurement": "Inhibition %", "setting": "[2]; 100 uM compound, HCoaB, replicates R1-R3, 100 µM", "result": "65.93% and 62.02%"}, {"measurement": "inhibition at 0.015625 µM", "setting": "[3]; 0.015625 uM 2b, replicate R1, read-out: Inhibition % R1", "result": 8.08, "unit": "%"}, {"measurement": "activity at 0.015625 µM", "setting": "[3]; 0.015625 uM 2b, replicate R1, relative to average DMSO CT, read-out: Activity % R1", "result": 91.9, "unit": "%"}, {"measurement": "Activity R1", "setting": "[3]; 0.015625 uM 2b, replicate R1", "result": 0.0001714}, {"measurement": "inhibition at 0.015625 µM", "setting": "[3]; 0.015625 uM 2b, replicate R2, read-out: Inhibition % R2", "result": 5.01, "unit": "%"}, {"measurement": "activity at 0.015625 µM", "setting": "[3]; 0.015625 uM 2b, replicate R2, relative to average DMSO CT, read-out: Activity % R2", "result": 95, "unit": "%"}, {"measurement": "inhibition at 0.015625 µM", "setting": "[3]; 0.015625 uM 2b, replicate R3, read-out: Inhibition % R3", "result": 10.3, "unit": "%"}, {"measurement": "activity at 0.015625 µM", "setting": "[3]; 0.015625 uM 2b, replicate R3, relative to average DMSO CT, read-out: Activity % R3", "result": 89.7, "unit": "%"}, {"measurement": "Activity R3", "setting": "[3]; 0.015625 uM 2b, replicate R3", "result": 0.0001672}, {"measurement": "inhibition at 0.03125 µM", "setting": "[3]; 0.03125 uM 2b, replicate R1, read-out: Inhibition % R1", "result": 20.2, "unit": "%"}, {"measurement": "activity at 0.03125 µM", "setting": "[3]; 0.03125 uM 2b, replicate R1, relative to average DMSO CT, read-out: Activity % R1", "result": 79.8, "unit": "%"}, {"measurement": "Activity R1", "setting": "[3]; 0.03125 uM 2b, replicate R1", "result": 0.0001487}, {"measurement": "inhibition at 0.03125 µM", "setting": "[3]; 0.03125 uM 2b, replicate R2, read-out: Inhibition % R2", "result": 19.2, "unit": "%"}, {"measurement": "activity at 0.03125 µM", "setting": "[3]; 0.03125 uM 2b, replicate R2, relative to average DMSO CT, read-out: Activity % R2", "result": 80.8, "unit": "%"}, {"measurement": "inhibition at 0.03125 µM", "setting": "[3]; 0.03125 uM 2b, replicate R3, read-out: Inhibition % R3", "result": 19.4, "unit": "%"}, {"measurement": "activity at 0.03125 µM", "setting": "[3]; 0.03125 uM 2b, replicate R3, relative to average DMSO CT, read-out: Activity % R3", "result": 80.6, "unit": "%"}, {"measurement": "Activity R3", "setting": "[3]; 0.03125 uM 2b, replicate R3", "result": 0.0001503}, {"measurement": "inhibition at 0.0625 µM", "setting": "[3]; 0.0625 uM 2b, replicate R1, read-out: Inhibition % R1", "result": 37.9, "unit": "%"}, {"measurement": "activity at 0.0625 µM", "setting": "[3]; 0.0625 uM 2b, replicate R1, relative to average DMSO CT, read-out: Activity % R1", "result": 62.1, "unit": "%"}, {"measurement": "Activity R1", "setting": "[3]; 0.0625 uM 2b, replicate R1", "result": 0.0001157}, {"measurement": "inhibition at 0.0625 µM", "setting": "[3]; 0.0625 uM 2b, replicate R2, read-out: Inhibition % R2", "result": 38.9, "unit": "%"}, {"measurement": "activity at 0.0625 µM", "setting": "[3]; 0.0625 uM 2b, replicate R2, relative to average DMSO CT, read-out: Activity % R2", "result": 61.2, "unit": "%"}, {"measurement": "inhibition at 0.0625 µM", "setting": "[3]; 0.0625 uM 2b, replicate R3, read-out: Inhibition % R3", "result": 38, "unit": "%"}, {"measurement": "activity at 0.0625 µM", "setting": "[3]; 0.0625 uM 2b, replicate R3, relative to average DMSO CT, read-out: Activity % R3", "result": 62, "unit": "%"}, {"measurement": "Activity R3", "setting": "[3]; 0.0625 uM 2b, replicate R3", "result": 0.0001157}, {"measurement": "inhibition at 0.25 µM", "setting": "[3]; 0.25 uM 2b, replicate R1, read-out: Inhibition % R1", "result": 95, "unit": "%"}, {"measurement": "activity at 0.25 µM", "setting": "[3]; 0.25 uM 2b, replicate R1, relative to average DMSO CT, read-out: Activity % R1", "result": 4.96, "unit": "%"}, {"measurement": "Activity R1", "setting": "[3]; 0.25 uM 2b, replicate R1", "result": 0.000009249}, {"measurement": "activity at 0.25 µM", "setting": "[3]; 0.25 uM 2b, replicate R2, relative to average DMSO CT, read-out: Activity % R2", "result": 4.35, "unit": "%"}, {"measurement": "inhibition at 0.25 µM", "setting": "[3]; 0.25 uM 2b, replicate R3, read-out: Inhibition % R3", "result": 95.6, "unit": "%"}, {"measurement": "activity at 0.25 µM", "setting": "[3]; 0.25 uM 2b, replicate R3, relative to average DMSO CT, read-out: Activity % R3", "result": 4.39, "unit": "%"}, {"measurement": "Activity R3", "setting": "[3]; 0.25 uM 2b, replicate R3", "result": 0.000008176}, {"measurement": "inhibition at 0.5 µM", "setting": "[3]; 0.5 uM 2b, replicate R1, read-out: Inhibition % R1", "result": 97.8, "unit": "%"}, {"measurement": "activity at 0.5 µM", "setting": "[3]; 0.5 uM 2b, replicate R1, relative to average DMSO CT, read-out: Activity % R1", "result": 2.19, "unit": "%"}, {"measurement": "Activity R1", "setting": "[3]; 0.5 uM 2b, replicate R1", "result": 0.000004090}]}
